Active and inactive are the calls of the source. The rule behind the calls is not given here.

Data set [1] can be described thus: Clearance in Beagle dog at 0.5 mg/kg, iv measured up to 24 hrs by LC-MS/MS analysis. Type of data set: ADME, organism-based, Canis lupus familiaris. The settings on record: in vivo.
The target in a further data set is CYP2C19 (Homo sapiens, UniProt P33261). Nature of the data set: Time dependent inhibition of CYP2C19 (unknown origin) at 30 uM measured after 30 mins relative to control. It is filed as ADME. The note with it: read-out: TDI.
Sequence of CYP2C19 (P33261 whole entry): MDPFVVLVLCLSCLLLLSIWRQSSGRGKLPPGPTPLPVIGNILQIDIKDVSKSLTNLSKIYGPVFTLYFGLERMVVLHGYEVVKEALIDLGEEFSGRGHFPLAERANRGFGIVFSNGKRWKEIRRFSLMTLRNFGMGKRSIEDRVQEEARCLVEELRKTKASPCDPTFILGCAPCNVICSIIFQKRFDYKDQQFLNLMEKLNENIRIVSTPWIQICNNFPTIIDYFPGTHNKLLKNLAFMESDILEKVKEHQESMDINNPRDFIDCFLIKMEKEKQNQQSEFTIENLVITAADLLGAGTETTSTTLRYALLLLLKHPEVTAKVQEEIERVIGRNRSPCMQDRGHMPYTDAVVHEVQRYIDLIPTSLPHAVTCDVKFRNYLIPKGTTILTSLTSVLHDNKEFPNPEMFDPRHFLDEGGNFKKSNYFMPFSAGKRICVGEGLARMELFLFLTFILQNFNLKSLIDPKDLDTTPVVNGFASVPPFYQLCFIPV
The target in another data set is CYP3A4 (Homo sapiens, UniProt P08684). The data set can be described thus: Time dependent inhibition of CYP3A4 (unknown origin) using testosterone as substrate at 30 uM measured after 30 mins relative to control. Type of data set: ADME. The settings on record: probe testosterone, read-out: TDI.
Sequence of CYP3A4 (P08684 whole entry): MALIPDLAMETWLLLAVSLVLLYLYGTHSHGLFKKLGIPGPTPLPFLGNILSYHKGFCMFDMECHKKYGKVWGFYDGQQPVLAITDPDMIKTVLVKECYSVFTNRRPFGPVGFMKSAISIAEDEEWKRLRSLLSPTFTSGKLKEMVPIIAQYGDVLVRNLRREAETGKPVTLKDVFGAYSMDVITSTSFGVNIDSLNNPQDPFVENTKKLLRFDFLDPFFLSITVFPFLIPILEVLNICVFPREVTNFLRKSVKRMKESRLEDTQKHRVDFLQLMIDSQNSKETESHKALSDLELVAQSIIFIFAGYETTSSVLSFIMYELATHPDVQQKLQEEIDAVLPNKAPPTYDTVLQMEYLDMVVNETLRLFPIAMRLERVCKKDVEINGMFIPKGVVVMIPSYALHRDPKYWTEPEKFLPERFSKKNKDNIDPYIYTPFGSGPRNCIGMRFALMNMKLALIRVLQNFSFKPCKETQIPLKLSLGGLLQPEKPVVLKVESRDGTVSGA
The target in another data set is T1, Cytochrome P450 1A2 (Homo sapiens, UniProt P05177).
T1 sequence (P05177 whole entry): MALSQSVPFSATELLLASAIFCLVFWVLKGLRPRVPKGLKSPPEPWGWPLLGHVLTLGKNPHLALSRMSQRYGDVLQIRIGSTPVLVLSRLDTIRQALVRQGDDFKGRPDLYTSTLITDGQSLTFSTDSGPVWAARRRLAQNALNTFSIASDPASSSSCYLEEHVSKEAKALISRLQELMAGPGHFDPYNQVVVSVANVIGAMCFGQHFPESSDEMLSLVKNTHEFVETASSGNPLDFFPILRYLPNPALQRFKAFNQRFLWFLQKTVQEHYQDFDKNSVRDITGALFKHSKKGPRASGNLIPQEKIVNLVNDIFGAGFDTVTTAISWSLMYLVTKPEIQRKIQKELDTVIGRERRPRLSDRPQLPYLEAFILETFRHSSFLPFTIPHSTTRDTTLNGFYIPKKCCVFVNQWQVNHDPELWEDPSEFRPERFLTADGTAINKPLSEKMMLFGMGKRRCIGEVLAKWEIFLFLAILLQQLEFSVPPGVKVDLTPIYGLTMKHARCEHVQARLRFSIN
Nature of the data set: Inhibition of CYP1A2 (unknown origin) measured after 30 mins. Type of data set: ADME.

The target of another data set is Cytochrome P450 2C9 (Homo sapiens, UniProt P11712). The data set can be described thus: Inhibition of CYP2C9 (unknown origin) measured after 30 mins. Type of data set: ADME.
Sequence of Cytochrome P450 2C9 (P11712 whole entry): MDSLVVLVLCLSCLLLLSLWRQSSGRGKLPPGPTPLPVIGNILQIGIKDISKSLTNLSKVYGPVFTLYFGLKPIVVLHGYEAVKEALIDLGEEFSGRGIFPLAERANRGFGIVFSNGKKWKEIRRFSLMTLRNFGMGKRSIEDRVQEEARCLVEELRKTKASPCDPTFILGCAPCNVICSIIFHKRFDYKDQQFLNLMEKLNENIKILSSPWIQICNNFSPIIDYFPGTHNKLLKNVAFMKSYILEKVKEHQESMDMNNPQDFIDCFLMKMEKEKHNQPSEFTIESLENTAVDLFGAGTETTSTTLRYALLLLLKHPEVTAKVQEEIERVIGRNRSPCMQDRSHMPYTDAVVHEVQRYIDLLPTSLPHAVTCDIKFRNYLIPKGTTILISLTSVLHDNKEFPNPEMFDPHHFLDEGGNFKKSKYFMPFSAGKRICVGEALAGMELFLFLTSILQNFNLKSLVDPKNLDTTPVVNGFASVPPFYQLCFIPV
For another data set, the target named is Cytochrome P450 2C19 (Homo sapiens, UniProt P33261). The data set can be described thus: Inhibition of CYP2C19 (unknown origin) measured after 30 mins. Type of data set: ADME.
Sequence of Cytochrome P450 2C19 (P33261 whole entry): as the sequence (P33261 whole entry) above
The subject of data set [2] is 786-0. The data set can be described thus: Anti-tumor activity against human 786-0 cells xenografted in mouse model assessed as tumor growth inhibition in presence of sunitinib at 30 mg/kg, po once daily for 15 days. Type of data set: functional, organism-based. The note with it: time 15.0 day.
Data set [3] has as its system 786-0. Nature of the data set: Anti-tumor activity against human 786-0 cells xenografted in mouse model assessed as tumor growth inhibition in presence of sunitinib at 10 mg/kg, po once daily for 15 days. Type of data set: functional, organism-based. The settings on record: time 15.0 day.
The subject of data set [4] is 786-0. The data set can be described thus: Anti-tumor activity against human 786-0 cells xenografted in mouse model assessed as reduction in tumor volume in presence of sunitinib at 10 mg/kg, po once daily for 15 days. Type of data set: functional, organism-based. The note with it: time 15.0 day.
The nature of data set [5]: Toxicity in mouse xenografted with human 786-0 cells assessed as body weight in presence of sunitinib at 10 mg/kg, po once daily for 15 days. The settings on record: in vivo, 360 h, time 15 day. It is filed as organism-based.
Data set [6] in a line: Half life in human (healthy individuals) at 90 mg, single oral dose. Type of data set: ADME. The settings on record: in vivo.
Data set [7] can be described thus: Tmax in human (healthy individuals) at 10 mg, single oral dose. Type of data set: ADME. The settings on record: in vivo.

The compound `Cc1cccnc1-c1ccc(-c2n[nH]c3ncc(-c4ccc5c(c4)CC[C@@H](N4C6COCC4C6)CC5)cc23)nc1` had a clearance in data set [1] of 25 mL/min/kg. For the same compound, the inhibition at 0.5 h, 30 µM on CYP2C19 was found to be 4.1%; at CYP3A4 it was 16%. In addition, the IC50 against Cytochrome P450 1A2 was above 100 µM; at Cytochrome P450 2C9, 91 µM; on Cytochrome P450 2C19, 17 µM. Besides, the outcome with 786-0 [2], with 786-0 [3] and in the data set on 786-0 [4] was Active. Further, the Activity result in data set [5] was “Non-toxic”. Moreover, the half-life in [6] is 54 h. The Tmax in data set [7] is 6 h.

The record behind these values is ChEMBL document CHEMBL6134930, “Discovery of AB801, a Potent and Selective Inhibitor of AXL Receptor Tyrosine Kinase for Use in Cancer Therapy” (J Med Chem, 2025).
